Measurements taken from patent US20070141618A1, “GENES EXPRESSED IN BREAST CANCER AS PROGNOSTIC AND THERAPEUTIC TARGETS” (priority 2001, published 2007).

How the values were obtained:
TFF1 = details: reportedly; Prud'homme et al. 1985; cited from earlier work
[1] = system: primary invasive breast cancer; test: Clinical tumor response (WHO criteria) in randomized Phase III neoadjuvant trial of letrozole versus tamoxifen; assay type: in vivo, human (postmenopausal women); details: clinical outcome of patients with profiled biopsies; clinical assessment by palpation at 4 months
Source text: Definitions of Objective Response Used in the Letrozole (FEMARA™) vs. Tamoxifen Comparison Study
1. Complete Response (CR): The disappearance of all known disease, determined by 2 observations not less than 4 weeks apart.
2. Partial Response (PR): A 50% or more decrease in total tumor size of the lesions which have been measured to determine the effect of therapy by 2 observations not less than 4 weeks apart. In addition there can be no appearance of new lesions or progression of any lesion.
4. Progressive Disease (PD): A 25% or more increase in the size of one or more measurable lesions, or the appearance of new lesions.
Clinical Response Assessment
The primary efficacy variable was tumor response, assessed by clinical examination using World Health Organization (WHO) criteria (see, WHO Handbook for Reporting Results of Cancer Treatment). It was defined as the percentage of patients in each treatment group with a CR or PR as determined clinically in the breast by palpation at 4 months. Possible responses were CR, PR, NC, PD or not assessable/not evaluable (NA/NE). Palpable ipsilateral axillary lymph nodal involvement downgraded a clinical CR in tumor. Other factors were also considered such the percentage of patients who underwent breast-conserving surgery (quadrantectomy/lumpectomy) instead of mastectomy. Patients who became inoperable, or who remained inoperable at 4 months, were counted as treatment failures.
Twenty-one RNA samples were extracted from 14-gauge needle core biopsies collected before initiation of neoadjuvant endocrine therapy from patients enrolled in a randomized Phase III trial of letrozole (FEMARA™, Novartis Pharma, Basal Switzerland) versus tamoxifen for postmenopausal women with primary invasive breast cancer ineligible for breast conserving surgery. RNA was extracted from an additional 30 primary breast adenocarcinomas collected in Sweden, one additional ESR1+breast tumor surgical biopsy, two HUVEC samples, two samples from glioblastoma cell line U373-MG and one MCF7 sample using Trizol (Life Technologies, Gaithersburg, Md.). The clinical samples were collected after informed consent had been obtained according to protocols approved by local ethics committees. RNA was purchased for two samples, an infiltrating Stage III duct carcinoma (Ambion, Austin, Tex.) and a pool of two normal breast tissues (Clontech, Palo Alto, Calif.). The total number of samples prepared was 59 including 53 breast cancer biopsies and one pooled normal breast sample. Total RNA was purified using QIAGEN RNEASY™ columns (Qiagen, Valencia, Calif.), processed and hybridized to the HUGENE™ FL 6800 Array (Affymetrix, Santa Clara, Calif.), as described by Lockhart et al., Nat. Biotechnol., Vol. 14, pp. 1675-1680 (1996).
In another aspect of the invention 136 breast biopsies from 53 patients were obtained. RNA was extracted from 116 biopsies. Expression profiles were generated for 43 biopsies from 35 patients. Predictive markers of endocrine therapy responsiveness in breast tumors were identified. The breakdown of the profiled biopsies from the pre-letrozole (FEMARA™) treatments and the patient's clinical outcome was as follows: four patients with CR, nine patients with PR, four patients with NC and four patients with PD.
For the group treated with tamoxifen there were no patients in the CR category, 10 patients with PR, seven patients with NC and four patients with PD.
Patients with CR or PR were classified as “Responders” and those with NC or PD were classified as “Non-responders”. The expression of 8,000 genes was compared between these two groups in the pre-treatment biopsies from patients given Letrozole (FEMARA™). Numerical values (AvDiff) represent the expression level for that gene in a particular sample. For computational reasons the average of the AvDiff values was calculated for each gene on the array for all of the responders. These averages were then compared to each gene for each individual sample in the Non-responders group. […]

[2] = system: advanced ER-positive breast cancer; details: patients with advanced ER-positive breast cancer; Clark et al. 1988; cited from earlier work

| SMILES | effect on TFF1 mRNA levels (TFF1) | patients with Complete Response (CR) [1] | patients with No Change (NC) [1] | patients with Partial Response (PR) [1] | patients with Progressive Disease (PD) [1] | response rate [2] | effect on estradiol induction of TFF1 (TFF1) |
| --- | --- | --- | --- | --- | --- | --- | --- |
| C[C@]12CCC(=O)C[C@@H]1CC[C@@H]1[C@@H]2CC[C@]2(C)[C@@H](O)CC[C@@H]12 [dihydrotestosterone] | not |  |  |  |  |  |  |
| N#Cc1ccc(C(c2ccc(C#N)cc2)n2cncn2)cc1 [letrozole] |  | four | four | nine | four |  |  |
| CC(=O)[C@H]1CC[C@H]2[C@@H]3CCC4=CC(=O)CC[C@]4(C)[C@H]3CC[C@]12C [progesterone] | not |  |  |  |  |  |  |
| CC/C(=C(\c1ccccc1)c1ccc(OCCN(C)C)cc1)c1ccccc1 [tamoxifen] |  | no | seven | 10 patients | four | around 50% | inhibited |
